Data reported in patent US10765114B2, “4-amino-6-(pyridyl and 2-substitutedphenyl)-picolinates and 6-amino-2-(pyridyl and 2-substitutedphenyl)-pyrimidine-4-carboxylates and their use as herbicides” (Dow AgroSciences LLC, priority 2013, dated 2020).

These molecules were tested on Key Grass and Sedge Weeds as well as Grass Crops (assay: Post-Emergent Test II (Table 6)). Conditions: post-emergence, 336 h, CYPSS, 140 g ai/ha, 14 days after application, read-out: Visual Growth Reduction (%) 14 Days After Application CYPSS.
Type: in vivo
In short: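 Growth stage at treatment: first or second true leaf. Application: compound in acetone/DMSO diluted into an adjuvant-containing aqueous mix, sprayed at 187 L/ha at several rates. Assessment: visual 0-100% injury at 14 days against untreated plants.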
`COC(=O)c1nc(-c2ccc(Cl)c(F)c2C(=O)O)cc(N)c1Cl` [Compound 91, 6-(4-amino-5-chloro-6-(methoxycarbonyl)pyridin-2-yl)-3-chloro-2-fluorobenzoic acid] gave a pest or weed control at 140 g/ha of 0 to 29%.

Same assay, conditions: post-emergence, 336 h, DIGSA: crabgrass (Digitaria sanguinalis), 70 g ai/ha, 14 days after application, read-out: Visual Growth Reduction (%) 14 Days After Application DIGSA
In the case of `COC(=O)c1nc(-c2ccc(Cl)c(F)c2C(=O)O)cc(N)c1Cl` [Compound 91, 6-(4-amino-5-chloro-6-(methoxycarbonyl)pyridin-2-yl)-3-chloro-2-fluorobenzoic acid], the pest or weed control at 70 g/ha was 0 to 29%.

Same assay, conditions: post-emergence, 336 h, DIGSA: crabgrass (Digitaria sanguinalis), 140 g ai/ha, 14 days after application, read-out: Visual Growth Reduction (%) 14 Days After Application DIGSA
In the case of `COC(=O)c1nc(-c2ccc(Cl)c(F)c2C(=O)O)cc(N)c1Cl` [Compound 91, 6-(4-amino-5-chloro-6-(methoxycarbonyl)pyridin-2-yl)-3-chloro-2-fluorobenzoic acid], the pest or weed control at 140 g/ha was 0 to 29%.

Same assay, conditions: post-emergence, 336 h, ECHSS, 70 g ai/ha, 14 days after application, read-out: Visual Growth Reduction (%) 14 Days After Application ECHSS
In the case of `COC(=O)c1nc(-c2ccc(Cl)c(F)c2C(=O)O)cc(N)c1Cl` [Compound 91, 6-(4-amino-5-chloro-6-(methoxycarbonyl)pyridin-2-yl)-3-chloro-2-fluorobenzoic acid], the pest or weed control at 70 g/ha was 0 to 29%.

Same assay, conditions: post-emergence, 336 h, ECHSS, 140 g ai/ha, 14 days after application, read-out: Visual Growth Reduction (%) 14 Days After Application ECHSS
`COC(=O)c1nc(-c2ccc(Cl)c(F)c2C(=O)O)cc(N)c1Cl` [Compound 91, 6-(4-amino-5-chloro-6-(methoxycarbonyl)pyridin-2-yl)-3-chloro-2-fluorobenzoic acid] gave a pest or weed control at 140 g/ha of 0 to 29%.

Same assay, conditions: post-emergence, 336 h, ORYSS (crop), 70 g ai/ha, 14 days after application, read-out: Visual Growth Reduction (%) 14 Days After Application ORYSS
Work on `COC(=O)c1nc(-c2ccc(Cl)c(F)c2C(=O)O)cc(N)c1Cl` [Compound 91, 6-(4-amino-5-chloro-6-(methoxycarbonyl)pyridin-2-yl)-3-chloro-2-fluorobenzoic acid] yielded a pest or weed control at 70 g/ha of 0 to 29%.

Same assay, conditions: post-emergence, 336 h, ORYSS (crop), 140 g ai/ha, 14 days after application, read-out: Visual Growth Reduction (%) 14 Days After Application ORYSS
`COC(=O)c1nc(-c2ccc(Cl)c(F)c2C(=O)O)cc(N)c1Cl` [Compound 91, 6-(4-amino-5-chloro-6-(methoxycarbonyl)pyridin-2-yl)-3-chloro-2-fluorobenzoic acid] was tested, and the pest or weed control at 140 g/ha was 0 to 29%.

Same assay, conditions: post-emergence, 336 h, SETFA: giant foxtail (Setaria faberi), 70 g ai/ha, 14 days after application, read-out: Visual Growth Reduction (%) 14 Days After Application SETFA
For `COC(=O)c1nc(-c2ccc(Cl)c(F)c2C(=O)O)cc(N)c1Cl` [Compound 91, 6-(4-amino-5-chloro-6-(methoxycarbonyl)pyridin-2-yl)-3-chloro-2-fluorobenzoic acid], the pest or weed control at 70 g/ha was 0 to 29%.

Same assay, conditions: post-emergence, 336 h, SETFA: giant foxtail (Setaria faberi), 140 g ai/ha, 14 days after application, read-out: Visual Growth Reduction (%) 14 Days After Application SETFA
Molecule `COC(=O)c1nc(-c2ccc(Cl)c(F)c2C(=O)O)cc(N)c1Cl` [Compound 91, 6-(4-amino-5-chloro-6-(methoxycarbonyl)pyridin-2-yl)-3-chloro-2-fluorobenzoic acid] has a pest or weed control at 140 g/ha of 0 to 29%.

Same assay, conditions: post-emergence, 336 h, SORVU: grain sorghum (Sorghum vulgare), 70 g ai/ha, 14 days after application, read-out: Visual Growth Reduction (%) 14 Days After Application SORVU
In the case of `COC(=O)c1nc(-c2ccc(Cl)c(F)c2C(=O)O)cc(N)c1Cl` [Compound 91, 6-(4-amino-5-chloro-6-(methoxycarbonyl)pyridin-2-yl)-3-chloro-2-fluorobenzoic acid], the pest or weed control at 70 g/ha was 0 to 29%.

Same assay, conditions: post-emergence, 336 h, SORVU: grain sorghum (Sorghum vulgare), 140 g ai/ha, 14 days after application, read-out: Visual Growth Reduction (%) 14 Days After Application SORVU
For `COC(=O)c1nc(-c2ccc(Cl)c(F)c2C(=O)O)cc(N)c1Cl` [Compound 91, 6-(4-amino-5-chloro-6-(methoxycarbonyl)pyridin-2-yl)-3-chloro-2-fluorobenzoic acid], the pest or weed control at 140 g/ha was 0 to 29%.

Same assay, conditions: post-emergence, 336 h, TRZSS (crop), 70 g ai/ha, 14 days after application, read-out: Visual Growth Reduction (%) 14 Days After Application TRZSS
Molecule `COC(=O)c1nc(-c2ccc(Cl)c(F)c2C(=O)O)cc(N)c1Cl` [Compound 91, 6-(4-amino-5-chloro-6-(methoxycarbonyl)pyridin-2-yl)-3-chloro-2-fluorobenzoic acid] has a pest or weed control at 70 g/ha of 0 to 29%.

Same assay, conditions: post-emergence, 336 h, TRZSS (crop), 140 g ai/ha, 14 days after application, read-out: Visual Growth Reduction (%) 14 Days After Application TRZSS
`COC(=O)c1nc(-c2ccc(Cl)c(F)c2C(=O)O)cc(N)c1Cl` [Compound 91, 6-(4-amino-5-chloro-6-(methoxycarbonyl)pyridin-2-yl)-3-chloro-2-fluorobenzoic acid] was tested, and the pest or weed control at 140 g/ha was 0 to 29%.

Same assay, conditions: post-emergence, 336 h, ZEAMX: maize, corn (Zea mays), 70 g ai/ha, 14 days after application, read-out: Visual Growth Reduction (%) 14 Days After Application ZEAMX
Work on `COC(=O)c1nc(-c2ccc(Cl)c(F)c2C(=O)O)cc(N)c1Cl` [Compound 91, 6-(4-amino-5-chloro-6-(methoxycarbonyl)pyridin-2-yl)-3-chloro-2-fluorobenzoic acid] yielded a pest or weed control at 70 g/ha of 0 to 29%.

Same assay, conditions: post-emergence, 336 h, ZEAMX: maize, corn (Zea mays), 140 g ai/ha, 14 days after application, read-out: Visual Growth Reduction (%) 14 Days After Application ZEAMX
Work on `COC(=O)c1nc(-c2ccc(Cl)c(F)c2C(=O)O)cc(N)c1Cl` [Compound 91, 6-(4-amino-5-chloro-6-(methoxycarbonyl)pyridin-2-yl)-3-chloro-2-fluorobenzoic acid] yielded a pest or weed control at 140 g/ha of 0 to 29%.
